Measured values from patent publication US8530680B2, “System and method for controlling growth of microorganisms with brominated furanones” (Syracuse University, priority 2008, dated 2013).

Experiments:
[1] = test system: six fungal strains (Gloeophyllum trabeum, Chaetomium globosum, Trametes versicolor); assay: Fungal growth on MEA plates with furanone, statements for all six strains; assay type: cell-based; settings: 1 to 60 μg/mL
Experimental: This Example examines the effect of brominated furanones on the growth of fungi associated with damage to building material. Six fungal strains were the subject of these experiments; Gloeophyllum trabeum (strains GT598 and GT599), Chaetomium globosum (wildtype strain and CG572), and Trametes versicolor (strains TV7B2-59 and TV57MAD277). The species were developed on 2% Malt-Extract Agar (MEA) plates and stored inverted at 4° C. The stocks were refreshed by streaking new plates every two months.
The brominated and non-brominated furanones were added to MAE agar plates at different concentrations. The brominated furanones were dissolved in either ethanol (“EtOH”) or methanol (“MeOH”) as stock solutions, as shown in Table 5. The non-brominated furanones were purchased from Sigma (St. Louis, Mo.). The furanone stocks were stored at 4° C.
MAE agar plates containing the same amounts of ethanol/methanol were also prepared as negative controls to eliminate any solvent effects. The plates were prepared using either 90 mm or 60 mm petri dishes and were stored inverted at 4° C. until use.
Different concentrations of furanones were studied to compare their antifungal activities. The plates were inoculated with the six fungal strains using a platinum loop and were incubated upside down at 30° C. for 7 days to monitor the growth. The initial screening was performed using a single 60 μg/mL furanone concentration.

C. albicans = C. albicans specific growth rate in a shake flask (data not shown); assay type: cell-based, Candida albicans; settings: 3 μg/mL, after 3 hours of treatment

CCCCC1=C(Br)/C(=C/Br)OC1=O [BF1, 4-bromo-5Z-(bromomethylene)-3-butylfuran-2-one]
growth inhibition of the six fungal strains, comparison [1]: effective at preventing growth in low concentrations
reduction of specific growth rate (C. albicans): approximately 50%
